Consider one compound from patent US20140093598A1, “COMPOUNDS AND EXTRACTS FROM GNETUM AFRICANUM AND ANTI-INFLAMMATORY ACTIVITY RELATED THERETO” (PHARMAFRI-CAN INC., priority 2010, published 2014).

Where two headings read alike, the source gives them in different places.

Test [1] relates to LPS induced TNF-α production in RAW 264.7 cells. The test is described as follows: LPS-induced TNF-α production in RAW 264.7 cells, ELISA of culture supernatants. The test is classed as cell-based. The note with it: for IC50: Mus musculus, RAW264.7. The protocol: Cell culture supernatants were used for the determination of TNF-α production by ELISA (R&D systems).
RAW 264.7 cells were treated with G. africanum leaf and stem extracts (200 μg/ml) for 1 hour and were then induced with LPS (10 μg/ml) for 18 hr. Cell culture supernatants were used for the determination of TNF-α production by ELISA (R&D systems).
Methanol, ethyl acetate and 95% ethanol stem extracts were further analyzed in a dose dependent manner (25-200 μg/ml).

For test [2] the test system is unchanged. The note with it: reported by Iyori et al. 2008; cited from earlier work.

On to `Oc1ccc(/C=C/c2cc(O)cc(O)c2)cc1` [resveratrol, (E)-5-(4-hydroxystyryl)benzene-1,3-diol], for which the IC50 worked out at 50 µM in test [1] (resveratrol 1 μM-100 μM, 1 hour pre-treatment, LPS 10 μg/ml for 18 hr, read-out: IC50, anti-inflammatory activity of resveratrol (FIG. 3)) and 12 µg/mL in test [1] (same value as 50 μM, restated in μg/ml, read-out: IC50, anti-inflammatory activity of resveratrol (FIG. 3), expressed by mass). Also, the “Inhibition of LPS-induced TNF-α production” value in test [1] (resveratrol at 50 μM and 100 μM, FIG. 3A) was “inhibited LPS-induced TNF-α production”. In addition, the “Inhibition of LPS induced TNF-α production” value in test [2] was “could inhibit LPS induced TNF-α production”.
